Experimental data as given in patent publication US20240131007A1, “METHODS AND COMPOSITIONS FOR PICORNAVIRUS ANTI-VIRAL AGENTS” (University of Connecticut, priority 2022, published 2024).
Like-named read-outs stand apart in the source and are kept apart here.

How the values were obtained:
EV-A71 = test: CPE inhibition assay (Cell Titer Glo) against EV-A71 in Vero cells; format: cell-based, Enterovirus A71; settings: for IC50: Enterovirus A, EVA71, EV-A71, Vero cells; for Selectivity Index: CC50/IC50
in vitro = settings: African green monkey, CC50 (μM)
[1] = Table 10, Scaffold 1, read-out: IC50
[2] = Table 8, virus-induced CPE, read-out: IC50

Row | SMILES | IC50 (EV-A71; [1]) | CC50 at 3 days (in vitro) | Selectivity Index (EV-A71; Table 10, Scaffold 1) | IC50 (EV-A71; [2]) | Selectivity Index (EV-A71; Table 8) | IC50 (EV-A71; read-out: IC50 for inhibition of virus-induced CPE)
1 | CC(=O)Nc1ccc(-c2nc3ccccc3[nH]2)cc1 [Compound 1, N-[4-(1H-benzimidazol-2-yl)phenyl]acetamide] | > 25 µM | > 400 µM | – | – | – | –
2 | O=C(Nc1ccc(-c2nc3ccccc3[nH]2)cc1)C1CC1 [Compound 2, N-[4-(1H-benzimidazol-2-yl)phenyl]cyclopropanecarboxamide] | 39.3 µM | 148 µM | 3.77 | – | – | –
3 | CC(=O)Nc1ccc(C(=O)Nc2ccc(-c3nc4ccccc4[nH]3)cc2)cc1 [Compound 3, 4-(acetylamino)-N-[4-(1H-benzimidazol-2-yl)phenyl]benzamide] | > 25 µM | > 400 µM | – | – | – | –
4 | CC(=O)Oc1ccc(C(=O)Nc2ccc(-c3nc4ccccc4[nH]3)cc2)cc1 [Compound 4, 4-({[4-(1H-benzimidazol-2-yl)phenyl]amino}carbonyl)phenyl acetate] | 34.2 µM | 119 µM | 3.49 | – | – | –
5 | Cc1ccc2[nH]c(-c3ccc(NC(=O)CCC(=O)O)cc3)nc2c1 [Compound 5, 4-{[4-(5-methyl-1H-benzimidazol-2-yl)phenyl]amino}-4-oxobutanoic acid] | > 25 µM | > 400 µM | – | – | – | –
6 | O=C(Nc1ccc(-c2nc3ccccc3[nH]2)cc1)c1ccccc1 [Compound 6, N-[4-(1H-benzimidazol-2-yl)phenyl]benzamide] | 30.8 µM | 13.7 µM | 0.45 | – | – | –
7 | O=C(Cc1ccccc1)Nc1ccc(-c2nc3ccccc3[nH]2)cc1 [Compound 7, N-[4-(1H-benzimidazol-2-yl)phenyl]-2-phenylacetamide] | > 25 µM | > 400 µM | – | – | – | –
8 | O=C(Nc1ccc(-c2nc3ccccc3[nH]2)cc1)c1ccccn1 [Compound 8, N-[4-(1H-benzimidazol-2-yl)phenyl]-2-pyridinecarboxamide] | – | 244 µM | 167.19 | 1.46 µM | 167.19 | –
9 | O=C(Nc1ccc(-c2nc3ccccc3[nH]2)cc1)c1cccs1 [Compound 10, N-[4-(1H-benzimidazol-2-yl)phenyl]-2-thiophenecarboxamide] | – | 210 µM | 42.06 | 5 µM | 42.06 | –
10 | O=C(Nc1ccc(-c2nc3ccccc3[nH]2)cc1)c1ccc(Br)o1 [Compound 11, N-[4-(1H-benzimidazol-2-yl)phenyl]-5-bromo-2-furamide] | 252 µM | 1650 µM | 6.54 | – | – | –
11 | O=C(Nc1ccc(-c2nc3ccccc3[nH]2)cc1)c1ccccc1F [Compound 13, N-[4-(1H-benzimidazol-2-yl)phenyl]-2-fluorobenzamide] | > 25 µM | 98.1 µM | – | – | – | –
12 | O=C(Nc1ccc(-c2nc3ccccc3[nH]2)cc1)c1ccc(F)cc1 [Compound 14, N-[4-(1H-benzimidazol-2-yl)phenyl]-4-fluorobenzamide] | > 25 µM | 133 µM | – | – | – | –
13 | O=C(Nc1ccc(-c2nc3ccccc3[nH]2)cc1)c1cccc(F)c1 [Compound 15, N-[4-(1H-benzimidazol-2-yl)phenyl]-3-fluorobenzamide] | > 25 µM | 29.2 µM | – | – | – | –
14 | O=C(Nc1ccc(-c2nc3ccccc3[nH]2)cc1)C1CCCC1 [Compound 17, N-[4-(1H-benzimidazol-2-yl)phenyl]cyclopentanecarboxamide] | 13.4 µM | 266 µM | 19.91 | – | – | –
15 | O=C(Nc1ccc(-c2nc3ccccc3[nH]2)cc1)c1ccc(N2CCOCC2)c([N+](=O)[O-])c1 [Compound 18, N-[4-(1H-benzimidazol-2-yl)phenyl]-4-(4-morpholinyl)-3-nitrobenzamide] | > 25 µM | 11.1 µM | – | – | – | –
16 | CCCCOc1cc(C(=O)NCCN(CC)CC)c2ccccc2n1 [Dibucaine, reference compound] | – | – | – | – | – | 4.5 µM
